Data on three compounds can be found in US20120225904A1, “New 7-Phenyl-[1,2,4]triazolo[4,3-a]Pyridin-3(2H)-One Derivatives” (priority 2009, published 2012).

T1 sequence (Q16539 whole entry): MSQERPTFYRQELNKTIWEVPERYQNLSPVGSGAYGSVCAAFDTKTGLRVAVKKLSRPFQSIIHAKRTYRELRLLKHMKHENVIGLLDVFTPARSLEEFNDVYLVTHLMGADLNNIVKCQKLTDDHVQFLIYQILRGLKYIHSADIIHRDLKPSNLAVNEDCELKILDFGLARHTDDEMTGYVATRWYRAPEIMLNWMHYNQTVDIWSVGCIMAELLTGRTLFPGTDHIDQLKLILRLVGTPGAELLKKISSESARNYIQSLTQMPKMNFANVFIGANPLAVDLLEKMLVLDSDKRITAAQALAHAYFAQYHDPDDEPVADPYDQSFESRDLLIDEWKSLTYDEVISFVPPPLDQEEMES

This experiment concerns the target T1, human p38alfa (SAPKa) enzyme (Homo sapiens, UniProt Q16539).
T1 construct: purchased University of Dundee
In words: p38alpha enzymatic inhibition assay (FRET, ATF2 substrate). The format is biochemical. The conditions noted are these: 1 h pre-incubation; ATF2 0.62 μM, ATP 60 μM; 1 h at 25° C.; read-out: p38α IC50. As for the experimental part: Enzymatic activity assay was performed in 96-well microtiter plates (Corning, catalog number # 3686) using a total volume of 50 μl of an assay buffer composed of 50 mM HEPES (4-(2-hydroxyethyl)-1-piperazineethanesulfonic acid) pH 7.5, 10 mM MgCl2, 1.75 mM Na3VO4.
Various concentrations of the test compound or vehicle controls were pre-incubated for one hour with 0.055 μg/ml of the human p38alfa (SAPKa) enzyme (obtained from University of Dundee). The reaction started by addition of biotinylated ATF2 substrate and ATP in concentrations around their Km values (final concentration 0.62 μM and 60 μM respectively) and took place for one hour at 25° C. Addition of the detection reagents, streptavidin—XL665 and anti-phosphoresidue antibody coupled to Europium cryptate, caused the juxtaposition of the cryptate and the XL665 fluorophore, resulting in fluorescence energy transfer (FRET).The FRET intensity depends on the amount of bounded cryptate antibody, which is proportional to the extent of substrate phosphorylation. FRET intensity was measured using Victor 2V spectrofluorometer.
Data were analyzed by non-linear regression (Hill equation) to generate a dose-response curve. The calculated IC50 value is the concentration of the test compound that caused a 50% decrease in the maximal FRET intensity.
Take `Cc1c(F)cc(C(=O)NC2CC2)cc1-c1ccn2c(=O)n(CC(C)(C)C)nc2c1` [Example 2, N-cyclopropyl-3-[2-(2,2-dimethylpropyl)-3-oxo-2,3-dihydro[1,2,4]triazolo[4,3-a]pyridin-7-yl]-5-fluoro-4-methylbenzamide]: the IC50 – broadly, the point on the concentration scale where inhibition reaches its midpoint – was 2 nM.

As for `Cc1ccc2c(NC3CC3)noc2c1-c1ccn2c(=O)n(CC(C)(C)C)nc2c1` [Example 11], the IC50 was 12 nM. Regarding `Cc1c(F)cc(C(=O)NC2CC2)cc1-c1ccn2c(=O)n(-c3ccccc3Cl)nc2c1` [Example 7, 3-[2-(2-Chlorophenyl)-3-oxo-2,3-dihydro[1,2,4]triazolo[4,3-a]pyridin-7-yl]-N-cyclopropyl-5-fluoro-4-methylbenzamide], the IC50 was 1.08 nM.
